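All cell lines were grown in 96-well plates and treated with compound for 48 hours. Here, GI50 denotes the concentration required for 50% inhibition of growth.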 Active and inactive are the calls of the source. Cut-off read from the data, not from the text of the source: active = GI50 up to about 1.1 µM and inactive = higher.
Tests used:
Assay in all cases: NCI tumour cell line growth inhibition, 48 h
KM12 = tested on: KM12
PC-3 = tested on: PC-3
RPMI-8226 = tested on: RPMI-8226
A498 = tested on: A498
EKVX = tested on: EKVX
SN12C = tested on: SN12C
OVCAR-8 = tested on: OVCAR-8
RXF 393 = tested on: RXF 393
DU-145 = tested on: DU-145
OVCAR-3 = tested on: OVCAR-3
MOLT-4 = tested on: MOLT-4
SK-OV-3 = tested on: SK-OV-3
OVCAR-4 = tested on: OVCAR-4
SF-268 = tested on: SF-268
IGROV-1 = tested on: IGROV-1
COLO 205 = tested on: COLO 205
CAKI-1 = tested on: CAKI-1
MCF7 = tested on: MCF7
SW-620 = tested on: SW-620
SF-539 = tested on: SF-539

Row | Compound | GI50 (KM12) | GI50 (PC-3) | GI50 (RPMI-8226) | GI50 (A498) | GI50 (EKVX) | GI50 (SN12C) | GI50 (OVCAR-8) | GI50 (RXF 393) | GI50 (DU-145) | GI50 (OVCAR-3) | GI50 (MOLT-4) | GI50 (SK-OV-3) | GI50 (OVCAR-4) | GI50 (SF-268) | GI50 (IGROV-1) | GI50 (COLO 205) | GI50 (CAKI-1) | GI50 (MCF7) | GI50 (SW-620) | GI50 (SF-539)
1 | Nc1nc(-c2cccc([N+](=O)[O-])c2)cc(-c2cc(-c3cccc([N+](=O)[O-])c3)nc(N)n2)n1 | > 100 µM (inactive) | > 100 µM (inactive) | > 100 µM (inactive) | > 100 µM (inactive) | > 100 µM (inactive) | > 100 µM (inactive) | > 100 µM (inactive) | > 100 µM (inactive) | > 100 µM (inactive) | > 100 µM (inactive) | > 100 µM (inactive) | > 100 µM (inactive) | > 100 µM (inactive) | > 100 µM (inactive) | > 100 µM (inactive) | > 100 µM (inactive) | > 100 µM (inactive) | > 100 µM (inactive) | > 100 µM (inactive) | > 100 µM (inactive)
2 | CC1CC[C@@]2(OC1)OC1C[C@H]3[C@@H]4CC=C5CC(OC6OC(CO)C(OC7OC(CO)C(O)C(OC8OCC(O)C(O)C8O)C7OC7OC(CO)C(OC8OC(C)C(OC9OC(C)C(O)C(O)C9O)C(O)C8O)C(O)C7O)C(O)C6O)CCC5(C)[C@H]4CCC3(C)C1[C@@H]2C (stereo not given in full) | 9.33 µM (inactive) | 5.32 µM (inactive) | 10.8 µM (inactive) | 2.02 µM (inactive) | 8.28 µM (inactive) | 9.35 µM (inactive) | 9.95 µM (inactive) | 6.34 µM (inactive) | 7.87 µM (inactive) | 10.8 µM (inactive) | 11.6 µM (inactive) | 9.23 µM (inactive) | 4.21 µM (inactive) | 9.71 µM (inactive) | 8.49 µM (inactive) | 8.22 µM (inactive) | 7.55 µM (inactive) | 14.1 µM (inactive) | 11.4 µM (inactive) | 6.08 µM (inactive)
3 | C=C(C)[C@@H]1CC[C@@H](C)[C@](O)([C@@H]2C[C@@H]([C@H](COC(=O)c3ccccc3)OC(=O)c3ccccc3)OC2=O)C1 | > 100 µM (inactive) | 46.1 µM (inactive) | 54 µM (inactive) | > 100 µM (inactive) | > 100 µM (inactive) | > 100 µM (inactive) | > 100 µM (inactive) | > 100 µM (inactive) | > 100 µM (inactive) | > 100 µM (inactive) | 28 µM (inactive) | > 100 µM (inactive) | 59.4 µM (inactive) | > 100 µM (inactive) | > 100 µM (inactive) | > 100 µM (inactive) | > 100 µM (inactive) | > 100 µM (inactive) | > 100 µM (inactive) | > 100 µM (inactive)
4 | O=C1C=CC(=O)c2c1ccc1c3ccccc3n(CCCCCn3c4ccccc4c4ccc5c(c43)C(=O)C=CC5=O)c21 | > 100 µM (inactive) | 17.1 µM (inactive) | 4.14 µM (inactive) | 54.5 µM (inactive) | 33.3 µM (inactive) | 18.4 µM (inactive) | 17.7 µM (inactive) | 5.68 µM (inactive) | > 55.7 µM (inactive) | 17.9 µM (inactive) | 1.52 µM (inactive) | > 100 µM (inactive) | > 10 µM (inactive) | 15.7 µM (inactive) | 14.7 µM (inactive) | 15.2 µM (inactive) | 6.98 µM (inactive) | 19.7 µM (inactive) | 8.17 µM (inactive) | 16.1 µM (inactive)
5 | C=C1C(=O)OC2CC1C(O)C/C(C)=C/CC/C(C)=C/C(O)CC2C (stereo not given) | 5.21 µM (inactive) | 3.11 µM (inactive) | 1.32 µM (inactive) | 3.24 µM (inactive) | 1.87 µM (inactive) | 1.85 µM (inactive) | 1.89 µM (inactive) | 1.01 µM (active) | 2.2 µM (inactive) | 2.7 µM (inactive) | 0.625 µM (active) | 12.7 µM (inactive) | 2.45 µM (inactive) | 2.79 µM (inactive) | 2.75 µM (inactive) | 1.49 µM (inactive) | 2.75 µM (inactive) | 2.06 µM (inactive) | 2 µM (inactive) | 2.35 µM (inactive)
6 | Cc1cccc(C)c1/N=N/c1ccc(O)c(CN(C)C)c1 | > 100 µM (inactive) | 62.8 µM (inactive) | 29 µM (inactive) | 35.6 µM (inactive) | > 100 µM (inactive) | > 100 µM (inactive) | > 100 µM (inactive) | 0.716 µM (active) | > 100 µM (inactive) | 45.3 µM (inactive) | 34.8 µM (inactive) | > 100 µM (inactive) | 47.9 µM (inactive) | 47 µM (inactive) | 26.3 µM (inactive) | 22.3 µM (inactive) | 79.4 µM (inactive) | 89.1 µM (inactive) | 91.2 µM (inactive) | 79.4 µM (inactive)
